Source: patent publication US7767240B2, “Microbiological control in poultry processing” (priority 2001, dated 2010)

Legend:
[1] = tested on: S. sonnei, L. monocytogenes, E. coli, S. enteritidis, P. aeruginosa, C. jejuni; test: Mean % reduction from control over the six organisms (Example 3); assay type: cell-based; conditions: pH 8
Description: This group of tests was conducted to determine the effect of Clorox® bleach, Aquatize® biocide, and 1,3-dibromo-5,5-dimethylhydantoin (DBDMH) on carcass bacteria (Escherichia coli field strain) residual after 1,5-hour in a chill tank “soup”. Tests were conducted with soups at pH 7, pH 8 and pH 9 (adjusted by trisodium phosphate) for whole bird bacteria counts. Tests at pH 8 were conducted for individual bacteria counts.
In general the tests involved normal processing of 56-day-old birds and immersing the carcasses first in a warm bath containing 10^4 per mL Escherichia coli, 10^4 per mL Salmonella enteritidis, 10^4 per mL Pseudomonas aeruginosa, 10^4 per mL Campylobacter jejuni, and 10^4 per mL spoilage bacteria each from […] strains (Listeria monocytogenes and Shigella sonnei). The carcasses were then immersed in a chill tank “soup”, containing normal organic fluids (blood, fat, skin, and meat particles) and containing the microbiocides on the test.
The procedure used for whole bird wash sampling was as follows: • 1. All samples were kept at ≦50 degrees Fahrenheit following collection. • 2. Microbiological analyses of samples began within 24 hours of sample collection. • 3. Information on the individual sample identification, date of collection, time of collection (phase during shift), treatment group and location of sample point were recorded on each sample bottle. • 4. […]

[2] = tested on: total bacteria (S. sonnei, L. monocytogenes, E. coli, S. enteritidis, P. aeruginosa, C. jejuni); test: Total bacteria reduction from control over 20-day storage (Example 4); assay type: cell-based; conditions: pH 8
Description: A study was conducted to determine the effect of Clorox® bleach, and 1,3-dibromo-5,5-dimethylhydantoin (DBDMH) on carcass bacteria residual after 1.5 hour in a chill tank solution and spoilage 20-day shelf life longevity (caused by bacteria contamination). Tests were conducted at pH 8 (adjusted by trisodium phosphate). Skin pigmentation (Minolta Color Meter L value or Lightness, a value or redness and b value or yellowness) were determined before and post-processing.
In general the study involved normal processing of 56-day-old birds, immersing carcasses first in a warm bath containing 10^4 per mL Escherichia coli, 10^4 per mL Salmonella enteritidis, 10^4 per mL Pseudomonas aeruginosa, 10^4 per mL Campylobacter jejuni, and 10^4 per mL spoilage bacteria each from […] strains (Listeria monocytogenes and Shigella sonnei). Carcass were then immersed in a chill tank “soup”, containing normal organic fluids (blood, fat, skin, and meat particles) and containing various disinfectants (termed test materials).
A DBDMH stock solution and test solutions, a bacteria stock solution, and a “chicken soup” were prepared as in Example 3. In addition, the bacterial broth treatments, the whole bird wash sampling procedure, and the methodologies used for quantitative or qualitative determinations for bacterial organisms were conducted as in Example 3.
In greater detail the trial events and experimental design used in this group of tests were as follows: • a) Test microorganisms used were: • Escherichia coli ATCC 11229 • Pseudomonas aeruginosa ATCC 15442 • Salmonella enteritidis ATCC 13076 • Shigella sonnei ATCC 9290 • Listeria monocytogenes ATCC 7644 • Campylobacter jejuni ATCC 29428 • b) Test Procedure: All test strains were grown individually at 35° C. for 24 hours in the media specified in Table 12. Cells were harvested by centrifugation at 10,000×g for 10 minutes and washed twice with Butterfield's Phosphate Buffer (BPB of pH 7.2). Cells were resuspended in BPB to obtain a cell suspension of approximately 1.0×10^8 CFU/mL for each microorganism. The target inoculum levels were approximately 10^6 CFU/mL in the final test solutions. In the cases of S. enteritidis and P. aeruginosa the species were washed by pouring into prepared sterile centrifuge tubes with cheesecloth filters. The culture was then pelleted and washed using above techniques and repeated 3 times. • c) The birds (56 days old) were processed under normal commercial conditions. • d) The bacteria were added to a large batch of the “chicken soup”, and then aliquots of the resultant mixture were distributed equally among the chill waters used for each test. Then the particular disinfectant composition under test was added to one of the chill waters. […]

CC1(C)C(=O)N(Br)C(=O)N1Br [DBDMH, 1,3-dibromo-5,5-dimethylhydantoin] was tested, and the “Mean % Reduction From Control” value ([1]; 10 ppm) was 85.8%, the “Mean % Reduction From Control” value ([1]; 20 ppm) was 98.8% and the “Percentage of Total Bacteria Reduction From Control (Mean % Reduction From Control)” value (shortened to “Percentage … (Mean % Reduction From Control)”) ([2]; Day 0 post-processing, 10 ppm) was 77.8%. The “Percentage … (Mean % Reduction From Control)” value ([2]; Day 0 post-processing, 20 ppm) was 99.5%, the “Percentage … (Mean % Reduction From Control)” value ([2]; Day 2 post-processing, 10 ppm) was 77.3% and the “Percentage … (Mean % Reduction From Control)” value ([2]; Day 2 post-processing, 20 ppm) was 99.4%. The “Percentage … (Mean % Reduction From Control)” value ([2]; Day 4 post-processing, 10 ppm) was 76.8%, the “Percentage … (Mean % Reduction From Control)” value ([2]; Day 4 post-processing, 20 ppm) was 99.2% and the “Percentage … (Mean % Reduction From Control)” value ([2]; Day 6 post-processing, 10 ppm) was 77.1%. The “Percentage … (Mean % Reduction From Control)” value ([2]; Day 6 post-processing, 20 ppm) was 98.5%, the “Percentage … (Mean % Reduction From Control)” value ([2]; Day 8 post-processing, 10 ppm) was 74.6% and the “Percentage … (Mean % Reduction From Control)” value ([2]; Day 8 post-processing, 20 ppm) was 97.3%. For the same compound, the “Percentage … (Mean % Reduction From Control)” value ([2]; Day 10 post-processing, 10 ppm) was 71.9%, the “Percentage … (Mean % Reduction From Control)” value ([2]; Day 10 post-processing, 20 ppm) was 95.1% and the “Percentage … (Mean % Reduction From Control)” value ([2]; Day 12 post-processing, 10 ppm) was 69.2%. The “Percentage … (Mean % Reduction From Control)” value ([2]; Day 12 post-processing, 20 ppm) was 91.2%, the “Percentage … (Mean % Reduction From Control)” value ([2]; Day 14 post-processing, 10 ppm) was 66.2% and the “Percentage … (Mean % Reduction From Control)” value ([2]; Day 14 post-processing, 20 ppm) was 84.3%. For the same compound, the “Percentage … (Mean % Reduction From Control)” value ([2]; Day 16 post-processing, 10 ppm) was 61.9%, the “Percentage … (Mean % Reduction From Control)” value ([2]; Day 16 post-processing, 20 ppm) was 71.2% and the “Percentage … (Mean % Reduction From Control)” value ([2]; Day 18 post-processing, 10 ppm) was 58.5%. For the same compound, the “Percentage … (Mean % Reduction From Control)” value ([2]; Day 18 post-processing, 20 ppm) was 68.0%, the “Percentage … (Mean % Reduction From Control)” value ([2]; Day 20 post-processing, 10 ppm) was 53.7% and the “Percentage … (Mean % Reduction From Control)” value ([2]; Day 20 post-processing, 20 ppm) was 67.2%.
